According to ChEMBL document CHEMBL4765274, “The development of advanced structural framework as multi-target-directed ligands for the treatment of Alzheimer's disease” (Eur J Med Chem, 2020):
Activity calls are given as the source filed them. The calls are words filed in the database; no cut-off is given here.

What was measured:
[1] = Metal chelating activity assessed as Al3+-compound complex formation in PBS buffer at pH 7.4 at 37.5 uM by UV-Visible spectra analysis
Danio rerio [2] = species on record: Danio rerio; assay: Antialzheimer activity in amyloid beta (1 to 40 residues)-induced zebra fish AD model assessed as reduction in vascular injury at 0.78 ug/ml relative to control; assay type: functional; set-up: scale not given: the % may be the effect or the level left; settings: dose 0.78 µg/ml
[3] = Effect on GFP expression in mouse HT-22 cells expressing pEGFP-N1 at 10 uM after 24 hrs by flow cytometric analysis; assay type: ADME, cell-based; settings: ht-22, 24 h
[4] = Toxicity in 3 dpf zebra fish assessed as mortality at 12.5 ug/ml (reference value: 0%); set-up: species or system Danio rerio; settings: zebrafish, at 12.5 µg/mL, read-out: Activity
HT-22 [5] = assay: Activation of ubiquitin-proteasome system in mouse HT-22 cells expressing pRK5-GFP-Tau assessed as increase in tau degradation by measuring reduction in GFP level after 24 hrs by flow cytometric analysis; assay type: cell-based; settings: filed as activator, dose 2.5-20 µM
[6] = Toxicity in 3 dpf zebra fish assessed as mortality at 50 ug/ml (reference value: 0%); set-up: species or system Danio rerio; settings: zebrafish, at 50 µg/mL, read-out: Activity
HT-22 [7] = assay: Activation of ubiquitin-proteasome system in mouse HT-22 cells expressing pRK5-GFP-Tau P301L mutant assessed as increase in tau degradation by measuring reduction in GFP level after 24 hrs by fluorescence microscopic method; assay type: cell-based; settings: filed as activator, dose 2.5-20 µM
[8] = Toxicity in 2 dpf zebra fish assessed as slow blood flow at 25 ug/ml after 3 days relative to control; assay type: tissue-based, Danio rerio; settings: zebrafish, 72 h, at 25 µg/mL, time 3 day
[9] = Toxicity in 3 dpf zebra fish assessed as mortality at 200 ug/ml (reference value: 0%); set-up: species or system Danio rerio; settings: zebrafish, at 200 µg/mL, read-out: Activity
[10] = Toxicity in 2 dpf zebra fish assessed as absent blood flow at 25 ug/ml after 3 days relative to control; assay type: tissue-based, Danio rerio; settings: zebrafish, 72 h, at 25 µg/mL, time 3 day
[11] = Toxicity in 2 dpf zebra fish assessed as yolk sac absorption delay at 2.78 ug/ml after 3 days relative to control; set-up: species or system Danio rerio; settings: zebrafish, 72 h, at 2.78 µg/mL, time 3 day
Danio rerio [12] = species on record: Danio rerio; assay: Antialzheimer activity in Alcl3-induced zebra fish AD model assessed as increase dyskinesia recovery rate at 0.09 ug/ml relative to control; assay type: functional; settings: dose 0.09 µg/ml
Cholinesterase [13] = biological target: T1, Cholinesterase (Homo sapiens, UniProt P06276); assay: Reversible inhibition of human BChE assessed as residual activity at 0.1 times of IC50 concentration after 240 mins relative to control
[14] = Toxicity in 3 dpf zebra fish assessed as pericardium edema at 1.56 ug/ml; set-up: species or system Danio rerio; settings: zebrafish; dose 1.56 µg/ml
[15] = Toxicity in 2 dpf zebra fish assessed as small brain at 25 ug/ml after 3 days relative to control; assay type: tissue-based, Danio rerio; settings: zebrafish, 72 h, at 25 µg/mL, time 3 day
PC-12 = assay: Cytotoxicity against rat PC-12 cells assessed as reduction in cell viability up to 100 uM after 48 hrs by MTT assay; assay type: cell-based; settings: pc-12, 48 h
[16] = Toxicity in 2 dpf zebra fish assessed as degenerating muscle within the somites at 25 ug/ml after 3 days relative to control; set-up: species or system Danio rerio; settings: zebrafish, 72 h, at 25 µg/mL, time 3 day
Cholinesterase [17] = biological target: T1, Cholinesterase; assay: Inhibition of human serum BChE by Ellman's method; assay type: cell-free
Mus musculus [18] = assay: Antialzheimer activity in scopolamine-induced Kunming mouse model of memory impairment assessed as uniquely mapped in brain hippocampus at 5 mg/kg , po by illumina sequencing method (reference value: 94.54%); assay type: functional
Danio rerio [19] = species on record: Danio rerio; assay: Antialzheimer activity in Alcl3-induced zebra fish AD model assessed as increase in motility; assay type: functional, organism-based
[20] = Toxicity in 2 dpf zebra fish assessed as dark brown liver at 25 ug/ml after 3 days relative to control; set-up: species or system Danio rerio; settings: zebrafish, 72 h, at 25 µg/mL, time 3 day
Mus musculus [21] = assay: Antialzheimer activity in scopolamine-induced Kunming mouse model of memory impairment assessed as latency time at 20 mg/kg , po by step-down passive avoidance test (reference value: 125.65 sec); assay type: functional
[22] = Inhibition of Cu2+-induced amyloid beta (unknown origin) aggregation after 24 hrs by TEM analysis
[23] = Drug metabolism in mouse blood assessed as metabolite formation by UPLC-TOF analysis; assay type: ADME, tissue-based
Danio rerio [24] = species on record: Danio rerio; assay: Antialzheimer activity in Alcl3-induced zebra fish AD model assessed as increase dyskinesia recovery rate at 0.26 ug/ml relative to control; assay type: functional; settings: dose 0.26 µg/ml
[25] = Metal chelating activity assessed as Cu2+-compound complex formation in PBS buffer at pH 7.4 at 37.5 uM by UV-Visible spectra analysis
[26] = Metal chelating activity assessed as Zn2+-compound complex formation in water at 37.5 uM by UV-Visible spectra analysis
[27] = Toxicity in 3 dpf zebra fish assessed as blood flow retardation at 1.56 ug/ml; assay type: tissue-based, Danio rerio; settings: zebrafish, dose 1.56 µg/ml
Danio rerio [28] = species on record: Danio rerio; assay: Antialzheimer activity in Alcl3-induced zebra fish AD model assessed as increase dyskinesia recovery rate at 0.78 ug/ml relative to control; assay type: functional; settings: dose 0.78 µg/ml
[29] = Metal chelating activity assessed as Al3+-compound complex formation in methanol at 37.5 uM by UV-Visible spectra analysis
[30] = Toxicity in 3 dpf zebra fish assessed as mortality at 0.78 ug/ml (reference value: 0%); set-up: species or system Danio rerio; settings: zebrafish, at 0.78 µg/mL, read-out: Activity
[31] = Toxicity in 2 dpf zebra fish assessed as absent blood flow at 8.33 ug/ml after 3 days relative to control; assay type: tissue-based, Danio rerio; settings: zebrafish, 72 h, at 8.33 µg/mL, time 3 day
[32] = Toxicity in Kunming mouse assessed as abnormal behavior up to 5000 mg/kg, po after 14 days; assay type: organism-based; settings: in vivo, 336 h, time 14 day
HT-22 [33] = assay: Activation of ubiquitin-proteasome system in mouse HT-22 cells expressing pRK5-GFP-Tau assessed as increase in tau degradation by measuring reduction in GFP level after 24 hrs by fluorescence microscopic method; assay type: cell-based; settings: filed as activator, dose 2.5-20 µM
[34] = Metal chelating activity assessed as Al3+-compound complex formation in water buffer at pH 7.4 at 37.5 uM by UV-Visible spectra analysis
[35] = Disaggregation of Cu2+ induced amyloid beta (unknown origin) aggregation after 48 hrs by TEM analysis
Cholinesterase [36] = biological target: Cholinesterase (Equus caballus, UniProt P81908); assay: Inhibition of equine serum BChE by Ellman's method; assay type: cell-free
[37] = Toxicity in 2 dpf zebra fish assessed as change in body shape at 25 ug/ml after 3 days relative to control; set-up: species or system Danio rerio; settings: zebrafish, 72 h, at 25 µg/mL, time 3 day
[38] = Toxicity in 2 dpf zebra fish assessed as misshapen brain at 25 ug/ml after 3 days relative to control; assay type: tissue-based, Danio rerio; settings: zebrafish, 72 h, at 25 µg/mL, time 3 day
[39] = Metal chelating activity assessed as Zn2+-compound complex formation in PBS buffer at pH 7.4 at 37.5 uM by UV-Visible spectra analysis
Acetylcholinesterase [40] = biological target: T2, Acetylcholinesterase (Homo sapiens, UniProt P22303); assay: Reversible inhibition of human AChE assessed as residual activity at 0.1 times of IC50 concentration after 120 mins relative to control
Acetylcholinesterase [41] = biological target: T2, Acetylcholinesterase; assay: Inhibition of AChE in human erythrocytes by Ellman's method; assay type: cell-based, Erythrocyte

T1 sequence (P06276 whole entry): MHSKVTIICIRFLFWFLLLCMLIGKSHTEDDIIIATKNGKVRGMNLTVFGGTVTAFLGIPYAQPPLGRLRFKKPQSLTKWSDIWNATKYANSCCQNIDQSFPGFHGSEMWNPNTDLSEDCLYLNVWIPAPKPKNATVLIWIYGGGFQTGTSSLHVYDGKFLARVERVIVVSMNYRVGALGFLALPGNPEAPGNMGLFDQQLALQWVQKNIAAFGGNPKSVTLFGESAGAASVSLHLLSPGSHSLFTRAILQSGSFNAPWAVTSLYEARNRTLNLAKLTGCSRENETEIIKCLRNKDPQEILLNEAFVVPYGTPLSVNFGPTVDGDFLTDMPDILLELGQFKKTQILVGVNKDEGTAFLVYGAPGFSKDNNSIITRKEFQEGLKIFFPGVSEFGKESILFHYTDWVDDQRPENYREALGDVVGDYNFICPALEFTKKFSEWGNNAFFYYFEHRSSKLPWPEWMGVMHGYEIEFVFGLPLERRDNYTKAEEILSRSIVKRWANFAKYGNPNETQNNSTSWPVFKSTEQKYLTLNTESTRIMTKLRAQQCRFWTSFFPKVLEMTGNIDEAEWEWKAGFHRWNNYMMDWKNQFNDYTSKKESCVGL
T2 sequence (P22303 whole entry): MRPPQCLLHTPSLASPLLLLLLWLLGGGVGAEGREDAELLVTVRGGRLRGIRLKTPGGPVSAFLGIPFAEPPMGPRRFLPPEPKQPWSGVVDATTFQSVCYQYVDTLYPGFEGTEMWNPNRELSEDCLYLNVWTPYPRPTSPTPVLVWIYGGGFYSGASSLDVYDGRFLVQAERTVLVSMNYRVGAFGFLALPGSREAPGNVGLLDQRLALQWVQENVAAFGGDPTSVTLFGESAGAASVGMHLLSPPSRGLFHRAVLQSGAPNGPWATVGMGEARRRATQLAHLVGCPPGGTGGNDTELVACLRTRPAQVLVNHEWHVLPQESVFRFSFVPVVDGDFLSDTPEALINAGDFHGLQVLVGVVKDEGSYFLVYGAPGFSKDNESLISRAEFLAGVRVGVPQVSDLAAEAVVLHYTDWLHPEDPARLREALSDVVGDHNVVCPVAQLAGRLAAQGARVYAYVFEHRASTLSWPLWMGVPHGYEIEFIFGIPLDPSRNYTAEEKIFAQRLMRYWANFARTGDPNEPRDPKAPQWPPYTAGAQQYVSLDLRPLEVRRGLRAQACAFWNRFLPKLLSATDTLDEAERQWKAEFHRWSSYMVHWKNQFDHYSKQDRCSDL
Chain of Cholinesterase (Equus caballus, UniProt P81908) (P81908 whole entry): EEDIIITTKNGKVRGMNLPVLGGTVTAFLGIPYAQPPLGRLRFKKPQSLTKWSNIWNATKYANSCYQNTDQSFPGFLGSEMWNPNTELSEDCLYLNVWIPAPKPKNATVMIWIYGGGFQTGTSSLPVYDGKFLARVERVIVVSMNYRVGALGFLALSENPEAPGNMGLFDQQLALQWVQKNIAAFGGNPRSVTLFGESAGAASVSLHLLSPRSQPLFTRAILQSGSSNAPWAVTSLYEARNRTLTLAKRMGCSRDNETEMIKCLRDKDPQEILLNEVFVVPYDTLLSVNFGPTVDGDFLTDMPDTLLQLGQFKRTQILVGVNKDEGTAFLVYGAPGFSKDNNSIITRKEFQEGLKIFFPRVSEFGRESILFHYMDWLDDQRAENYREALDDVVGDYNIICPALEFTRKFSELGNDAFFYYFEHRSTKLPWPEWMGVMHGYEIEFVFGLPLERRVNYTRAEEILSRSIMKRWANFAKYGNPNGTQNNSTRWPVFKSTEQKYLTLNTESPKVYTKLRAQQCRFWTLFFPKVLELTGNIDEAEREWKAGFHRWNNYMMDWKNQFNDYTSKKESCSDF

With `CCN(CCCCOc1ccc(-c2cc(=O)c3c(O)cc(OCCCCN(CC)Cc4ccccc4)cc3o2)cc1)Cc1ccccc1` as the molecule, how does the Activity [1] read?
The Activity was “inactive”.

And the Activity (Danio rerio [2])?
Its Activity is 0%.

What about the Activity [3] of the same molecule?
The Activity was “Non-Toxic”.

What about the mortality at 12.5 ug/ml [4] of the same molecule?
The mortality at 12.5 ug/ml was 100%.

And the Activity (HT-22 [5])?
Its Activity is “Dose-dependent effect”.

And the mortality at 50 ug/ml [6]?
The mortality at 50 ug/ml was 100%.

What about the Activity (HT-22 [7]) of the same molecule?
The Activity was “Dose-dependent effect”.

And the Activity [8]?
The Activity was 46.7%.

And the mortality at 200 ug/ml [9]?
The mortality at 200 ug/ml was 100%.

And the Activity [10]?
Its Activity is 53.3%.

What about the Activity [11] of the same molecule?
The Activity was 26.7%.

What about the Activity (Danio rerio [12]) of the same molecule?
The Activity was 67%.

What about the Activity (Cholinesterase [13]) of the same molecule?
The Activity was 97.6%.

And the Activity [14]?
Its Activity is “Toxic”.

And the Activity [15]?
The Activity was 50%.

What about the Activity (PC-12) of the same molecule?
Its Activity is “Non-Toxic”.

And the Activity [16]?
Its Activity is 33.3%.

And the IC50 (Cholinesterase [17])?
Its IC50 is 15.3 µM.

What about the Activity (Mus musculus [18]) of the same molecule?
Its Activity is 94.34%.

And the Activity (Danio rerio [19])?
Its Activity is “Dose-dependent effect”.

What about the Activity [20] of the same molecule?
Its Activity is 100%.

What about the Time (Mus musculus [21]) of the same molecule?
The Time was 245.98 s.

What about the inhibition [22] of the same molecule?
Its inhibition is “Active”.

What about the Drug metabolism [23] of the same molecule?
Its Drug metabolism is “Metabolite_Detected”.

And the Activity (Danio rerio [24])?
The Activity was 80%.

What about the Activity [25] of the same molecule?
Its Activity is “Active”.

What about the Activity [26] of the same molecule?
Its Activity is “inactive”.

And the Activity [27]?
Its Activity is “Toxic”.

What about the Activity (Danio rerio [28]) of the same molecule?
The Activity was 87%.

And the Activity [29]?
Its Activity is “Active”.

And the mortality at 0.78 ug/ml [30]?
Its mortality at 0.78 ug/ml is 0%.

And the Activity [31]?
The Activity was 33.3%.

And the Activity [32]?
The Activity was “Non-Toxic”.

What about the Activity (HT-22 [33]) of the same molecule?
Its Activity is “Dose-dependent effect”.

And the Activity [34]?
The Activity was “inactive”.

What about the Activity [35] of the same molecule?
Its Activity is “Active”.

And the IC50 (Cholinesterase [36])?
Its IC50 is 9.6 µM.

And the Activity [37]?
The Activity was 46.7%.

What about the Activity [38] of the same molecule?
Its Activity is 76.7%.

And the Activity [39]?
Its Activity is “inactive”.

What about the Activity (Acetylcholinesterase [40]) of the same molecule?
The Activity was 86.6%.

What about the IC50 (Acetylcholinesterase [41]) of the same molecule?
The IC50 was 0.36 µM.
